# In patent US8399681B2, “Substituted aminothiazolone indazoles as estrogen related receptor-alpha modulators” (Janssen Pharmaceutica NV, priority 2009, dated 2013):
# Tests used:
# Zucker fa/fa male rats = experiment: Zucker fa/fa Rat Model Assay; assay type: in vivo; conditions: dosed orally once a day for 4 days, blood collected at day 5
# Description: Zucker fa/fa is a monogenic model of frank diabetes due to a mutation on the fa gene truncating the leptin receptor and preventing its interaction with its peptide hormone. This mutation results in a hyperphagic phenotype and the rodent develops obesity, hyperlipidemia, fasting hyperglycemia and insulin resistance. Zucker fa/fa male rats were received at four weeks of age and allowed to acclimate for one week. At five weeks of age the animals were single housed in cages in a temperature-controlled room with 12-hour light/dark cycle. The rats were allowed ad libitum access to water and food and throughout the study were maintained on a Purina 5008 diet. Animals were sorted based primarily on fed insulin levels and circulating triglycerides. Animals were dosed orally once a day in the morning for 4 days. The vehicle used was either 20% HPβCD (Hydroxypropyl Beta Cyclodextrin) or 15% Vitamin E/30% PEG-400 (Polyethylene Glycol 400). Fed insulin and triglycerides were measured using blood collected from the tail vein at day 5. Serum plasma samples were prepared by centrifugation in EDTA (Ethylenediaminetetraacetic acid) containing tubes, transferred into 96 well plates and stored at −80° C.
# [1] = target: T1, ERR1 (also known as ERR-α or ERR-1) (Homo sapiens, UniProt P11474); experiment: TR-FRET assay (disruption of co-activator peptide binding); assay type: biochemical; conditions: 6His-tagged ERR1 LBD, GST-hSRC2 co-activator polypeptide; average of 3 independent experiments
# T1 sequence (P11474 193-421 limits assumed): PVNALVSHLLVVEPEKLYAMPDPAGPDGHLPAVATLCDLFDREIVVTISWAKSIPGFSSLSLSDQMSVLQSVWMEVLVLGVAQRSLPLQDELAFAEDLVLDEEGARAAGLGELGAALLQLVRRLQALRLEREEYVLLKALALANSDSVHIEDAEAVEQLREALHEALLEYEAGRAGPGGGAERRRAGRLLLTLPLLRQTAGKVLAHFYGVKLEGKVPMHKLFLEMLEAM
# Outline: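 His6-ERR1 LBD (6 nM) with GST-SRC-2 peptide (6 nM), anti-GST Eu cryptate (30 nM) and anti-His XL665 (7.5 nM) in Tris pH 8/KCl/DTT/BSA buffer, equilibrated 4-18 h at 25 °C. Ex 340, em 615/665 nm; hyperbolic dose-response fit, mean of 3 experiments.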
SMILES,% Lowering Fed Insulin Levels (Zucker fa/fa male rats),% Lowering Fed Triglyceride Levels (Zucker fa/fa male rats),EC50 [1]
"O=C1N=C(N2C[C@@H]3C[C@H]2CN3CCO)S/C1=C\c1ccc2c(cnn2Cc2ccc(C(F)(F)F)cc2C(F)(F)F)c1 [Example 71, 5-[1-(2,4-Bis-trifluoromethyl-benzyl)-1H-indazol-5-ylmethylene]-2-[5-(2-hydroxy-ethyl)-2S,5S-diaza-bicyclo[2.2.1]hept-2-yl]-thiazol-4-one]",37%,25%,16.4 nM
"CN(C)C(=O)CN1CCN(C2=NC(=O)/C(=C/c3ccc4c(cnn4Cc4ccc(Cl)cc4C(F)(F)F)c3)S2)CC1 [Example 72, 2-(4-{5-[1-(4-Chloro-2-trifluoromethyl-benzyl)-1H-indazol-5-ylmethylene]-4-oxo-4,5-dihydro-thiazol-2-yl}-piperazin-1-yl)-N,N-dimethyl-acetamide]",62%,57%,13.3 nM
"NC1CN(C2=NC(=O)/C(=C/c3ccc4c(cnn4Cc4ccc(Cl)cc4C(F)(F)F)c3)S2)C1 [Example 98, 2-(3-Amino-azetidin-1-yl)-5-[1-(4-chloro-2-trifluoromethyl-benzyl)-1H-indazol-5-ylmethylene]-thiazol-4-one]",51%,22%,15 nM
"O=C1N=C(N2CCNCC(O)C2)S/C1=C\c1ccc2c(cnn2Cc2ccc(Cl)cc2C(F)(F)F)c1 (centres unmarked) [Example 125, 5-[1-(4-Chloro-2-trifluoromethyl-benzyl)-1H-indazol-5-ylmethylene]-2-(6-hydroxy-[1,4]diazepan-1-yl)-thiazol-4-one]",30%,,10 nM
"O=C1N=C(N2CCN[C@@H](CO)C2)S/C1=C\c1ccc2c(cnn2Cc2ccc(C(F)(F)F)cc2C(F)(F)F)c1 [Example 139, 5-[1-(2,4-Bis-trifluoromethyl-benzyl)-1H-indazol-5-ylmethylene]-2-(3-(R)-hydroxymethyl-piperazin-1-yl)-thiazol-4-one]",82%,58%,16 nM
"O=C1N=C(N2CCO[C@H](CO)C2)S/C1=C\c1ccc2c(cnn2Cc2ccc(C(F)(F)F)cc2C(F)(F)F)c1 [Example 140, 5-[1-(2,4-Bis-trifluoromethyl-benzyl)-1H-indazol-5-ylmethylene]-2-((2S)-hydroxymethyl-morpholin-4-yl)-thiazol-4-one]",59%,67%,19 nM
"O=C1N=C(N2CCOC[C@H]2CO)S/C1=C\c1ccc2c(cnn2Cc2ccc(C(F)(F)F)cc2C(F)(F)F)c1 [Example 141, 5-[1-(2,4-Bis-trifluoromethyl-benzyl)-1H-indazol-5-ylmethylene]-2-(3(R)-hydroxymethyl-morpholin-4-yl)-thiazol-4-one]",49%,76%,37 nM
"O=C1N=C(N2CCOC[C@H]2CO)S/C1=C\c1ccc2c(cnn2Cc2ccc(Cl)cc2C(F)(F)F)c1 [Example 142, 5-[1-(4-Chloro-2-trifluoromethyl-benzyl)-1H-indazol-5-ylmethylene]-2-(3(R)-hydroxymethyl-morpholin-4-yl)-thiazol-4-one]",63%,55%,20 nM
"O=C1N=C(N2CCN[C@@H](CO)C2)S/C1=C\c1ccc2c(c1)c(Cl)nn2Cc1ccc(C(F)(F)F)cc1C(F)(F)F [Example 186, 5-[1-(2,4-Bis-trifluoromethyl-benzyl)-3-chloro-1H-indazol-5-ylmethylene]-2-(3-(R)-hydroxymethyl-piperazin-1-yl)-thiazol-4-one]",75%,56%,5 nM
"O=C1N=C(N2CCOC(C(=O)O)C2)S/C1=C\c1ccc2c(cnn2Cc2ccc(C(F)(F)F)cc2C(F)(F)F)c1 (centres unmarked) [Example 188, 4-[5-({1-[2,4-Bis(trifluoromethyl)benzyl]-1H-indazol-5-yl}methylidene)-4-oxo-4,5-dihydro-1,3-thiazol-2-yl]morpholine-2-carboxylic acid]",81%,59%,19.7 nM
"O=C1N=C(N2CCc3c(O)noc3C2)S/C1=C\c1ccc2c(cnn2Cc2ccc(Cl)cc2C(F)(F)F)c1 [Example 197, 5-({1-[4-Chloro-2-(trifluoromethyl)benzyl]-1H-indazol-5-yl}methylidene)-2-(3-hydroxy-4,7-dihydroisoxazolo[5,4-c]pyridin-6(5H)-yl)-1,3-thiazol-4(5H)-one]",27%,2%,29 nM
"O=C(O)C1=CCN(C2=NC(=O)/C(=C/c3ccc4c(cnn4Cc4ccc(Cl)cc4C(F)(F)F)c3)S2)CC1 [Example 198, 1-[5-({1-[4-Chloro-2-(trifluoromethyl)benzyl]-1H-indazol-5-yl}methylidene)-4-oxo-4,5-dihydro-1,3-thiazol-2-yl]-1,2,3,6-tetrahydropyridine-4-carboxylic acid]",35%,21%,15 nM
"COC(=O)N[C@@H]1C[C@H](CO)N(C2=NC(=O)/C(=C/c3ccc4c(cnn4Cc4ccc(C(F)(F)F)cc4C(F)(F)F)c3)S2)C1 [Example 213, Methyl {1-[5-({1-[2,4-bis(trifluoromethyl)benzyl]-1H-indazol-5-yl}methylidene)-4-oxo-4,5-dihydro-1,3-thiazol-2-yl]-5-(R)-(hydroxymethyl)pyrrolidin-3-(R)-yl}carbamate]",42%,30%,21 nM
"CN1CCN(C2=NC(=O)/C(=C/c3ccc4c(c3)c(C#N)nn4Cc3ccc(Cl)cc3C(F)(F)F)S2)CC1 [Example 223, 1-[4-Chloro-2-(trifluoromethyl)benzyl]-5-{[2-(4-methylpiperazin-1-yl)-4-oxo-1,3-thiazol-5(4H)-ylidene]methyl}-1H-indazole-3-carbonitrile]",77%,85%,13.4 nM
